Data set [1] is described as follows: Pharmacokinetic studies in mice: NSC185058 in plasma, brain and liver by LC-MS/MS. The data set is classed as in vivo. To be noted: for Cmax / AUC / half-life: plasma; for Cmax: read-out: average maximum plasma concentration (Cmax); for AUC: read-out: Area under the curve (AUC) for the plasma; for half-life: read-out: elimination half-life (converted). The procedure: (§1) FIG. 1. NSC185058 (NSC) effectively distributes to the plasma, the brain, and the liver with minimal toxicity in mice. (A) to (C) Mice were dosed with peanut oil vehicle or ATG4B antagonists NSC185058 at doses of 10 or 50 mg/kg body weight. Plasma, the brain, and the liver tissues were collected at the indicated time points. (A) Total concentrations of the NSC compound in plasma were measured by LC-MS/MS. The PK parameter of NSC in plasma was determined. (B) NSC levels in plasma were determined form 5 min to 24 hr post dosing. The chemical structure of NSC was shown. (C) NSC levels were determined in the plasma, the brain, and the liver tissues at 0.5 and 8 hr post dosing. (D) Hematoxylin and eosin stained section s of indicated organs that were treated with NSC (150 mg/kg body weight) or vehicle on Monday, Wednesday, and Friday for three weeks. Scale bars, 50 μm. n=3 mice/group/time point.
Athymic (Ncr nu/nu) mice were injected intraperitoneal (i.p.) with peanut oil vehicle or ATG4B antagonists NSC185058 (50 mg/kg body weight for high does group and 10 mg/kg body weight for low does group). Mouse blood was withdrawn by terminal cardiac puncture while the animals were anesthetized with isoflurane. Blood samples were collected in tubes containing K2EDTA as the anticoagulant at 5, 15, and 30 minutes; 1, 2, 4, 8, and 24 hours post-dose for treatment groups. Mouse brain and liver tissue were also collected from the study animals at 1, 2, 4, and 8 hours post-dose. Control group animals were sacrificed at 24 hours after vehicle injection. Blood samples were centrifuged within one hour of collection and plasma was frozen at approximately −80° C. until analyzed at for concentration of the drug. Total concentrations of the NSC185058 compound in the plasma, the liver, and the brain were measured by LC-MS/MS at Illinois Institute of Technology Research Institute.
(§2) The NSC was administered at the dose of 10 or 50 mg/kg body weight in group of three mice. At the indicated time points spanning a 24 hrs period ([…], 0.5, 1, 2, 4, 8, and 24 hour), the plasma, the brain, and the liver tissues were collected. Plasmid and extracts from the brain and the liver were analyzed by LC-MS/MS using method developed at the Illinois Institute of Technology Research Institute (IITRI). […] Plasma exposure appears to increase beyond the hinge in dose for the dosing range tested. The elimination half-life was 2 and 4 for the 10 and 50 mg/kg dose, respectively. […] To examine whether NSC is tolerated in mouse, we investigated the effect induced by NSC in mouse behavior or by pathologic analysis of vital organs including the brain, the heart, the liver, the lung, the kidney, and the spleen. Mice underwent treatments on Monday, Wednesday, and Friday for three week with either peanut oil (vehicle) or NSC (150 mg/kg body weight) in peanut oil. […] Animal tissues were collected one week after the last dosing and subject for hematoxylin and eosin staining.

The nature of data set [2]: Toxicity evaluation of NSC185058 in mouse organs (behavior, hematoxylin and eosin staining). The data set is classed as in vivo, mice. The following applies: for pathologic analysis of vital organs (hematoxylin and eosin): 150 mg/kg Monday, brain, heart, liver, lung, kidney, spleen, one week after last dosing. The procedure: as §1
Mice were randomized into two groups before the start of experiment. Animals received peanut oil vehicle (control) or ATG4B antagonists NSC185058 (150 mg/kg body weight) on Monday, Wednesday, and Friday for tow to three weeks. Then, mouse tissues and organs including the liver, the kidney, the lung, the spleen, the heart, and the brain were collected after one week post last dose. All specimens were immediately formalin-fixed for 24-36 hrs and then embedded in paraffin embedded. Five micrometer-thick serial sections were obtained from each samples for standard hematoxylin and eosin staining.
as §2

For data set [3], the system named is intracranial PDX GBM39 tumor xenografts. Description: Intracranial PDX GBM39 xenograft model (BLI, body weight, survival). The following applies: monotherapy.
Description: (A) Designs for Combination Therapy of Targeting Autophagy using NSC (150 mg/kg, Monday, Wednesday, and Friday), IR (2 Gy/day for 5 consecutive days), TMZ (100 mg/kg/day), RT+NSC, TMZ+NSC or RT+TMZ+NSC for PDX GBM39 model. (B) Body weight curves of different groups. Values represent the mean±SEM (n=8). *p<0.05, **p<0.01 compared to vehicle controls. (C) Relative changes in bioluminescent (BLI) signals of intracranial xenograft tumors with vehicle control or indicated treatment. n=8/group. *p<0.05, **p<0.01 compared to vehicle controls. Values represent the mean±SEM (n=8). *p<0.05, **p<0.01 compared to vehicle controls. (D) Representative bioluminescent images of mice-bearing intracranial xenografts with indicated treatments. NSC, IR, TMZ, and the indicated combinations. Treatments were started at day 7 post implantation. Mice were imaged after the last treatment. […] (E) Kaplan-Meier (left) and log-rank p value analyses (right) of mice bearing GSC 83 orthotopic xenografts with indicated treatments. […]
Athymic (Ncr nu/nu) mice at 6-8 week age were obtained from Taconic Farms. […] When Bioluminescent imaging (BLI) was detected in all animal, which were randomized into different treatment groups. […] Mice were monitored every day until the onset of neurological symptoms due to tumor burden. The tumor growth was monitored using the bioluminescent imaging (BLI) station (Caliper Life Sciences).
Data set [4] concerns mTORC1 and mTORC2 activity in GSC M83 and JK83 cells. Description: Immunoblot of mTORC1 and mTORC2 activity in GSCs. The data set is classed as cell-based. The following applies: GSC83 and JK83 cells, 72 hr. The method, then:
FIG. 5. A mTORC1/2 inhibitor AZD2014 inhibited cell survival, mTORC1 and mTORC2 activities in GSCs and glioma cells. (A) GSC M83 and JK83 and glioma cells U87 were treated with indicated concentration of AZD2014 for 72 h, then cell viability was evaluated. (B) GSC M83 and JK83 were treated with the indicated concentration of AZD2014 for 1 hr, or with 2 μM AZD2014 for the specified time. Cells were collected for immunoblot analysis. β-actin was used as a loading control; Results are representative of 2 independent experiments. *P<0.05, **P<0.01, paired two-way Student's t-test. Data are representative from three independent experiments with similar results.
FIG. 6. NSC enhanced the cytotoxicity of a mTORC1/2 inhibitor AZD2014 in GSCs. (A) GSC M83 and JK83 were exposed to DMSO control vs AZD2014 vs NSCs vs AZD2014 in combination with NSC for 72 hr. Cells were collected for immunoblot analysis using indicated antibodies. (B) Immunofluorescence analyses for LC3B puncta in GSC M83 and JK83 cells with indicated treatments. (C and D) GSC M83 and JK83 and/or neural progenitor cells (NPC) were treated as indicated in (A), cell viability was tested at 72 h after treatment (C), and cell apoptosis was measured by Annexin V FACS assay 48 h after treatment. Data are representative from three independent experiments with similar results.
IB assays were performed as previously described (Huang et al., 2016b). Specific antibodies were used according to the manufacturer's instructions: LC3B (#3868S), pAKT (Ser473; 4060), pAKT(Thr308; 4056), AKT (4691), pS6(S235/236; 2211), S6 (2317), phosphorylated 4E-binding protein 1 (p4EBP1) (Thr37/46; 2855), 4EBP1 (9644), p-mTOR (Ser2448; 2971S), p-mTOR (Ser2481; 2974S), mTOR (2972S), pULK1(Ser317; 14202T), pULK1 (Ser757; 8054T), ULK1(6439), LAMP2 (49067S) were from Cell Signaling Technology. Anti-β-actin (SC-47778) and anti-SQSTM1/p62 (SC-28359) antibodies were from Santa Cruz Biotechnology. An anti-Ki-67 antibody (AB9260) was from EMD Millipore.
mTOR kinases are crucial regulators of glioma cell growth, proliferation and survival (Akhavan et al., 2010). […] A strong inhibition was achieved by 1 μM with complete block of mTORC1/2 activities at 2 μM (FIG. 5B).
Since autophagy activation is considered as a cytoprotective factor that contribute to tumor survival when challenged by therapies, it is proposed that block of autophagy activation by NSC would further enhanced the cytotoxicity of dual TORC1/2 inhibitor AZD2014.

[5] abbreviates: athymic Ncr nu/nu, mouse, IP 10 mg/kg.
The mark [6] stands for this setting: athymic Ncr nu/nu, mouse, IP 50 mg/kg.

Where two headings read alike, the source gives them in different places.

As to `S=C(Nc1ccccn1)c1ccccn1` [NSC185058, N-pyridin-2-yl-pyridine-2-carbothioamide], the blood-brain barrier penetration entry in data set [1] is “excellent blood/brain barrier (BBB) penetration”; in data set [1] (listed as NSC), “penetrates the tumor blood-brain barrier at sufficient levels”. Besides, the Cmax in data set [1] (athymic Ncr nu/nu, mouse, IP single dose 10 mg/kg) was determined as 2.6 µM; in data set [1] (athymic Ncr nu/nu, mouse, IP single dose 50 mg/kg), 33 µM. For the same compound, in data set [1] (athymic Ncr nu/nu, mouse, IP, brain vs plasma, read-out: average brain tissue concentration relative to that in the plasma at the same time points), the Kp lay in the range of 0.4 to 1. Further, the concentration at 0.5 h in data set [1] (athymic Ncr nu/nu, mouse, brain, 50 mg/kg, 0.5 hrs post IP dose, read-out: Average brain tissue concentration) amounted to 12000 ng/g. The concentration at 8 h in data set [1] (athymic Ncr nu/nu, mouse, brain, 50 mg/kg, 8 hrs post IP dose, read-out: Average brain tissue concentration) is 4100 ng/g. Besides, the AUC in data set [1] (setting [5]) turned out to be 2140 ng·h/mL; in data set [1] (setting [6]) it was 57200 ng·h/mL. The half-life was 2 h in data set [1] (setting [5]) and 4 h in data set [1] (setting [6]). In addition, the “pathologic analysis of vital organs (hematoxylin and eosin)” value in data set [2] (Wednesday, Friday for three weeks) was “no relevant tissue toxicity”; in data set [2] (Wednesday, Friday for three weeks, listed as NSC), “no morphological changes or abnormal findings”. Further, the mouse behavior result in data set [2] (150 mg/kg in peanut oil, Monday, Wednesday, Friday for three weeks) is on record as “did not display behavioral changes”. Moreover, the “toxic effects on the animals” value in data set [2] (mice) is recorded as “did not display any toxic effects”. Also, the “survival analysis (growth-suppressive effects, FIG. 4E)” value in data set [3] is given as “not IR or NSC single treatment resulted in growth-suppressive effects”. The “mTOR signaling and ULK1 phosphorylation” value in data set [4] is “without affecting the mTOR signaling and ULK1 activity”.

The record behind these values is patent US11793816B2, “Methods for enhancing cytotoxic cancer therapy through inhibition of ATG4B” (Northwestern University, priority 2019, dated 2023).
